Data as given in paper PMC10669542, “Ascorbate Peroxidase 2 (APX2) of Chlamydomonas Binds Copper and Modulates the Copper Insertion into Plastocyanin” (Antioxidants, 2023).

Biological target: T1, APX2 (recombinant His-tagged APX2) (Chlamydomonas reinhardtii, UniProt A0A2K3DPX4)
T1 construct: gene CHLRE_06g285150v5
T1 sequence (A0A2K3DPX4 97-337): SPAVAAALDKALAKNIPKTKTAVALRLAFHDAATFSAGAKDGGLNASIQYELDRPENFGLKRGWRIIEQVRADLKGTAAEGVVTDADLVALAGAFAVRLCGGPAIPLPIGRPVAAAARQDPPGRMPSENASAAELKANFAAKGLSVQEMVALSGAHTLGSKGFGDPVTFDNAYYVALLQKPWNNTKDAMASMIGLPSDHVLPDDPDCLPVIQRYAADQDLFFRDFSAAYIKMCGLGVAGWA
Experiment: peroxidase assay, tetraguaiacol formation at […] nm
Type: biochemical
Conditions: electron donor, 10 mM; H2O2 varied 0-1 mM; 0.2 uM enzyme; 20 mM potassium phosphate pH 6.0

With `COc1ccccc1O` [guaiacol] as the molecule, how does the “peroxidase assay, tetraguaiacol formation at 470 nm” value read?
The value was “The enzyme demonstrated activity in the presence of guaiacol, a well-known electron donor for peroxidases”.
